What is called IC50 is the concentration at which inhibition is half-maximal. Low values mean greater potency in that assay, high ones weaker potency in that assay. In general, EC50 refers to the concentration that produces a half-maximal response.

From ChEMBL document CHEMBL3580572, “Synthesis of mixed opioid affinity cyclic endomorphin-2 analogues with fluorinated phenylalanines” (ACS Med Chem Lett, 2015) come the findings set out here.

Series [1] deals with T1, Mu-type opioid receptor (Homo sapiens, UniProt P35372). Put plainly: Agonist activity at human recombinant mu opioid receptor expressed in CHO cells co-expressing C-terminally modified Galphaqi5 assessed as stimulation of calcium release up to 1 uM by Fluo-4 AM dye-based fluorescence assay. Format: functional, cell-based.
T1 sequence (P35372 whole entry): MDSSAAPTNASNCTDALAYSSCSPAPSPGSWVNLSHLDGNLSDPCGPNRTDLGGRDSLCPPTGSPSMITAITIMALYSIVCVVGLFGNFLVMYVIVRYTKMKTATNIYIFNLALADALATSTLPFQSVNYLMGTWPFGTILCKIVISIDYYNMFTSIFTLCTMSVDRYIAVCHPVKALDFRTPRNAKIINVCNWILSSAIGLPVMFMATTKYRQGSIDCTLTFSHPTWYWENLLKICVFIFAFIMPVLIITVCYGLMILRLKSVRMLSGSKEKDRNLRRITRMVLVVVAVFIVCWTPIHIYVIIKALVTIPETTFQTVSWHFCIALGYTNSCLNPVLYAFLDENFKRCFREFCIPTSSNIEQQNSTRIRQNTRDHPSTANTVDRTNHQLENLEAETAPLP
The target of series [2] is T2, Delta-type opioid receptor (Homo sapiens, UniProt P41143). Put plainly: Agonist activity at human recombinant delta opioid receptor expressed in CHO cells co-expressing Galphaq66Di5 assessed as stimulation of calcium release up to 1 uM by Fluo-4 AM dye-based fluorescence assay. Format: functional, cell-based.
T2 sequence (P41143 whole entry): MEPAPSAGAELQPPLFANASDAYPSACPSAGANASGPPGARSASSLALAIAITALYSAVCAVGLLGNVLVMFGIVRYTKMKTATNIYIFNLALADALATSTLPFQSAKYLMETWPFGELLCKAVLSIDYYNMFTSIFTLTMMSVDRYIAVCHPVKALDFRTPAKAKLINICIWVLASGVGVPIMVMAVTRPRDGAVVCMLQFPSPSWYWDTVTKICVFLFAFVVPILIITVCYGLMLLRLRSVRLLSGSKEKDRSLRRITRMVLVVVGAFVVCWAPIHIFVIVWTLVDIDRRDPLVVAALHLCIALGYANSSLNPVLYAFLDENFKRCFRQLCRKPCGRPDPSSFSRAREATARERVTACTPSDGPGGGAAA
The target in series [3] is Mu-type opioid receptor (Rattus norvegicus, UniProt P33535). Put plainly: Displacement of [3H]DAMGO from mu opioid receptor in Wistar rat brain membranes after 120 mins by scintillation counting analysis. Format: cell membranes, Membrane. In general terms: Loss of bound radioactivity is the signal in a displacement assay; it reports binding, not function.
Sequence of Mu-type opioid receptor (Rattus norvegicus, UniProt P33535) (P33535 whole entry): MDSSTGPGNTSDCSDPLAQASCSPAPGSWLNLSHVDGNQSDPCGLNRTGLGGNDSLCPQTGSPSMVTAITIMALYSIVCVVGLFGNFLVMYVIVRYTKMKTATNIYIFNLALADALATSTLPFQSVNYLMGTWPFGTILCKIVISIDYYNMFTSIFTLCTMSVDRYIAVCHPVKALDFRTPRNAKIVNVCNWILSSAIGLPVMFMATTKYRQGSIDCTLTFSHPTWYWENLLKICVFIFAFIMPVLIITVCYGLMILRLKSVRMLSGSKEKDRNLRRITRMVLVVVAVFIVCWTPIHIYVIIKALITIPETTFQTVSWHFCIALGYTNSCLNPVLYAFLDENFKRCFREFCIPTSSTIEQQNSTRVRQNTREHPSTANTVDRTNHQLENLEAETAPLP
Series [4] deals with T3, Kappa-type opioid receptor (Homo sapiens, UniProt P41145). The experiment in a line: Intrinsic activity at human recombinant kappa opioid receptor expressed in CHO cells co-expressing C-terminally modified Galphaqi5 assessed as efficacy ratio by measuring stimulation of calcium release by Fluo-4 AM dye-based fluorescence assay relative to dynorphin-A. The class given is functional, cell-based.
T3 sequence (P41145 whole entry): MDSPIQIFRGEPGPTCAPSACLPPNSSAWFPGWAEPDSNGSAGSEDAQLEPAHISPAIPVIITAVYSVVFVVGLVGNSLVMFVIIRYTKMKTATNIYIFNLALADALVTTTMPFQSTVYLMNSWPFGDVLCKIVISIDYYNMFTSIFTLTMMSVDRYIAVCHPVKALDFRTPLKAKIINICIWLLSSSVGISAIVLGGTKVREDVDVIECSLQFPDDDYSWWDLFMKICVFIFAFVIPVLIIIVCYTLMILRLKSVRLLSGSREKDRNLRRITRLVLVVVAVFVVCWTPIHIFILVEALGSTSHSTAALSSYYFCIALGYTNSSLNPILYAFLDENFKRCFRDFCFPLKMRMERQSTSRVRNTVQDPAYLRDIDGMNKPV

The target of series [5] is T3, Kappa-type opioid receptor. Put plainly: Agonist activity at human recombinant kappa opioid receptor expressed in CHO cells co-expressing C-terminally modified Galphaqi5 assessed as stimulation of calcium release by Fluo-4 AM dye-based fluorescence assay. Format: functional, cell-based.
Series [6] has as its target Kappa-type opioid receptor (Cavia porcellus, UniProt P41144). Put plainly: Displacement of [3H]nor-BNI from kappa opioid receptor in guinea pig brain membranes after 120 mins by scintillation counting analysis. Format: cell membranes, Membrane.
Series [7] deals with Delta-type opioid receptor (Rattus norvegicus, UniProt P33533). The experiment in a line: Displacement of [3H][Ile5,6]deltorphin-2 from delta opioid receptor in Wistar rat brain membranes after 120 mins by scintillation counting analysis. Format: cell membranes, Membrane.
Sequence of Delta-type opioid receptor (Rattus norvegicus, UniProt P33533) (P33533 whole entry): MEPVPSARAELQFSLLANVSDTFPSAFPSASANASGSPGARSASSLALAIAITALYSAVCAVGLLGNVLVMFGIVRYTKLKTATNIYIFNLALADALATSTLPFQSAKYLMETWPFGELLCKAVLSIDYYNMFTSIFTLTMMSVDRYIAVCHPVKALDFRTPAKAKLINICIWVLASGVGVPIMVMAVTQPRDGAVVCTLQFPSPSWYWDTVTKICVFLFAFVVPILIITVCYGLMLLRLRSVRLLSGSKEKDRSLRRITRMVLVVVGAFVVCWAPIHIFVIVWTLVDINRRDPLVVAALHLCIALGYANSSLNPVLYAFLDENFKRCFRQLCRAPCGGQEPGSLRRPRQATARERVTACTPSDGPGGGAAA
Series [8] is described as follows: Metabolic stability in rat brain homogenates assessed as enzymatic degradation by measuring compound remaining at 0.5 mM after 90 mins by RP-HPLC analysis. Format: ADME, tissue-based. Particulars: brain homogenate, read-out: Stability.
Series [9] concerns the target T2, Delta-type opioid receptor. Put plainly: Agonist activity at human recombinant delta opioid receptor expressed in CHO cells co-expressing Galphaq66Di5 assessed as stimulation of calcium release by Fluo-4 AM dye-based fluorescence assay. Format: functional, cell-based.
Series [10] addresses T1, Mu-type opioid receptor. The experiment in a line: Agonist activity at human recombinant mu opioid receptor expressed in CHO cells co-expressing C-terminally modified GGalphaqi5 assessed as stimulation of calcium release by Fluo-4 AM dye-based fluorescence assay. Format: functional, cell-based.
Series [11] deals with T2, Delta-type opioid receptor. The experiment in a line: Intrinsic activity at human recombinant delta opioid receptor expressed in CHO cells co-expressing Galphaq66Di5 assessed as efficacy ratio by measuring stimulation of calcium release by Fluo-4 AM dye-based fluorescence assay relative to DPDPE. Format: functional, cell-based.
The subject of series [12] is Mus musculus. Put plainly: Antinociceptive activity in CD1 mouse assessed as inhibition of jumping behavior at 100 ng, icv after 10 mins by hot plate assay in presence of kappa opioid receptor antagonist nor-BNI. The class given is functional, organism-based.
The subject of series [13] is Mus musculus. Put plainly: Antinociceptive activity in CD1 mouse assessed as inhibition of jumping behavior at 100 ng, icv after 10 mins by hot plate assay in presence of mu opioid receptor antagonist beta-FNA. The class given is functional, organism-based. On the technique in general: In hot-plate and tail-flick tests a longer latency is read as antinociception.
Series [14] concerns Mus musculus. Put plainly: Antinociceptive activity in icv dosed CD1 mouse assessed as inhibition of jumping behavior after 10 mins by hot plate assay. The class given is functional, organism-based.
The test system of series [15] is Mus musculus. Put plainly: Antinociceptive activity in CD1 mouse assessed as maximal possible effect by measuring inhibition of jumping behavior at 10 mg/kg, ip after 15 mins by hot plate assay relative to control. The class given is functional.
Series [16] relates to Mus musculus. The experiment in a line: Antinociceptive activity in CD1 mouse assessed as inhibition of jumping behavior at 0.3 to 10 mg/kg, ip after 15 mins by hot plate assay. Format: functional, organism-based.

Molecules are shown by their SMILES. Activity calls are given as the source filed them. The rule behind the calls is not given here. Where a SMILES comes first, the peptide text is derived from it. Bridges are numbered along the chain shown (N, C = ends). [ ]: non-standard residue; d: D form. Phe(4-CF3) = N[C@@H](Cc1ccc(C(F)(F)F)cc1)C(=O)O; Dmt = Cc1cc(O)cc(C)c1C[C@H](N)C(=O)O

Sequence of Kappa-type opioid receptor (Cavia porcellus, UniProt P41144) (P41144 whole entry): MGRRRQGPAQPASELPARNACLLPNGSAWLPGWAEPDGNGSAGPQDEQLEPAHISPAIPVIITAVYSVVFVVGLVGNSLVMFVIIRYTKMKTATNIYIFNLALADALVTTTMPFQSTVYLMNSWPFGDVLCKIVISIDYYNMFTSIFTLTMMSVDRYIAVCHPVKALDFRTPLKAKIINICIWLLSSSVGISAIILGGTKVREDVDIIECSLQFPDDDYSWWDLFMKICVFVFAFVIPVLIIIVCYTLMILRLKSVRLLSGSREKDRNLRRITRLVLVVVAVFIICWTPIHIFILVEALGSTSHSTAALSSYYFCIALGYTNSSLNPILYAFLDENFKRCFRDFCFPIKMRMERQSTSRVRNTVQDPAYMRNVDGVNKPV

As for `NC(=O)[C@@H]1CC(=O)NCCCC[C@@H](NC(=O)[C@@H](N)Cc2ccc(O)cc2)C(=O)N[C@@H](Cc2ccc(C(F)(F)F)cc2)C(=O)N[C@@H](Cc2ccccc2)C(=O)N1`, the result in [1] and in [2] was inactive. For the same compound, the IC50 in series [3] was over 1000 nM; in series [6], 24.5 nM; in [7], over 1000 nM. Further, in series [4], the Ratio was found to be 0.7. Also, the EC50 in series [5] was 72.4 nM. Further, the remaining at 1.5 h, 500 µM in [8] is 97%.

`NC(=O)[C@@H]1CC(=O)NCCCC[C@@H](NC(=O)[C@@H](N)Cc2ccc(O)cc2)C(=O)N[C@@H](Cc2ccccc2)C(=O)N[C@@H](Cc2ccc(C(F)(F)F)cc2)C(=O)N1`: the IC50 in series [3] was 1.6 nM; in [6], 1.5 nM; in series [7], 429 nM. For the same compound, the Ratio was found to be 0.78 in [4] and 0.27 in series [11]. Moreover, the EC50 was 11.7 nM in series [5], 162 nM in [9] and 5.25 nM in series [10]. For the same compound, the remaining at 1.5 h, 500 µM in series [8] was 97%.

In the case of `Cc1cc(O)cc(C)c1C[C@H](N)C(=O)N[C@@H]1CCCCNC(=O)C[C@@H](C(N)=O)NC(=O)[C@H](Cc2ccccc2)NC(=O)[C@H](Cc2ccc(C(F)(F)F)cc2)NC1=O`, the outcome in [1] was inactive. Also, the IC50 in [3] is over 1000 nM; in [6], 6.4 nM; in [7], over 1000 nM. In addition, the EC50 in series [9] was 9.33 nM. In addition, in series [11], the Ratio turned out to be 0.28. Besides, in series [8], the remaining at 1.5 h, 500 µM came out at 96%.

Consider `NC(=O)[C@@H]1CC(=O)NCCCC[C@@H](NC(=O)[C@@H](N)Cc2ccc(O)cc2)C(=O)N[C@@H](Cc2ccccc2)C(=O)N[C@@H](Cc2ccc(F)cc2)C(=O)N1`, for which the values for the IC50 in series [3], in series [6] and in series [7] were 0.98 nM, 0.6 nM and 286 nM, respectively. Further, the Ratio worked out at 0.88 in series [4] and 0.2 in series [11]. Moreover, the values for the EC50 in series [5], in [9] and in series [10] were 1.05 nM, 51.3 nM and 3.24 nM, respectively. Moreover, the remaining at 1.5 h, 500 µM in [8] came to 93%.

Consider `NC(=O)[C@@H]1CC(=O)NCCCC[C@@H](NC(=O)[C@@H](N)Cc2ccc(O)cc2)C(=O)N[C@@H](Cc2ccc(F)cc2)C(=O)N[C@@H](Cc2ccccc2)C(=O)N1`, for which the IC50 in series [3] stood at 0.72 nM; in series [6] it was 2.43 nM; in [7], 348 nM. The values for the Ratio in [4] and in [11] were 0.89 and 0.14, respectively. In addition, the EC50 is 10 nM in series [5], 457 nM in series [9] and 2.57 nM in series [10]. Moreover, in series [8], the remaining at 1.5 h, 500 µM amounted to 96%.

Take `Cc1cc(O)cc(C)c1C[C@H](N)C(=O)N[C@@H]1CCCCNC(=O)C[C@@H](C(N)=O)NC(=O)[C@H](Cc2ccc(C(F)(F)F)cc2)NC(=O)[C@H](Cc2ccccc2)NC1=O` (H-[Dmt][dK]F[Phe(4-CF3)]D-NH2; lactam 2-5): in series [2], the outcome was inactive. Moreover, the IC50 in series [3] is 0.92 nM; in series [6], 1.15 nM; in series [7] it was over 1000 nM. In addition, in series [4], the Ratio was found to be 0.6. Further, the EC50 in series [5] is 3.63 nM; in [10], 6.76 nM. Further, the remaining at 1.5 h, 500 µM in series [8] turned out to be 93%.

`NC(=O)[C@@H]1CC(=O)NCCCC[C@@H](NC(=O)[C@@H](N)Cc2ccc(O)cc2)C(=O)N[C@@H](Cc2ccccc2)C(=O)N[C@@H](Cc2ccc(F)cc2F)C(=O)N1`: the IC50 in [3] amounted to 0.42 nM; in series [6], 0.9 nM; in [7] it was 110 nM. Besides, the Ratio in series [4] worked out at 0.78; in series [11] it was 0.5. For the same compound, the EC50 in series [5] is 4.9 nM; in series [9], 126 nM; in [10] it was 6.31 nM. In addition, the remaining at 1.5 h, 500 µM in [8] was 94%.

With `Cc1cc(O)cc(C)c1C[C@H](N)C(=O)N[C@@H]1CCCCNC(=O)C[C@@H](C(N)=O)NC(=O)[C@H](Cc2ccc(F)cc2F)NC(=O)[C@H](Cc2ccccc2)NC1=O`, the results for the IC50 in series [3], in series [6] and in series [7] were 0.49 nM, 0.3 nM and 11.2 nM, respectively. Further, the inhibition entry in [12] was “Active”. Moreover, the inhibition result in series [13] is “inactive”. Moreover, the figures for the Ratio in series [4] and in series [11] were 0.82 and 0.37, respectively. In series [14], the inhibition entry was “Dose-dependent effect”. For the same compound, the values for the EC50 in series [5], in [9] and in series [10] were 1.35 nM, 8.71 nM and 1.66 nM, respectively. For the same compound, the MPE in [15] came to 84%. Moreover, the remaining at 1.5 h, 500 µM in series [8] was 97%.

As to `NC(=O)[C@H](Cc1ccccc1)NC(=O)[C@H](Cc1ccccc1)NC(=O)[C@@H]1CCCN1C(=O)[C@@H](N)Cc1ccc(O)cc1` [ENDOMORPHIN 2], the remaining at 1.5 h, 500 µM in series [8] is 0.61%.

Regarding `NC(=O)[C@@H]1CC(=O)NCCCC[C@@H](NC(=O)[C@@H](N)Cc2ccc(O)cc2)C(=O)N[C@@H](Cc2ccc(F)cc2F)C(=O)N[C@@H](Cc2ccccc2)C(=O)N1`, the result in series [2] was inactive. Also, the half-inhibitory concentration (IC50) in series [3] is 0.69 nM; in [6], 3.26 nM; in series [7], over 1000 nM. In addition, the Ratio in series [4] worked out at 0.78. Further, the EC50 in series [5] was 7.59 nM; in series [10], 4.07 nM. For the same compound, the remaining at 1.5 h, 500 µM in series [8] came out at 93%.

Regarding `Cc1cc(O)cc(C)c1C[C@H](N)C(=O)N[C@@H]1CCCCNC(=O)C[C@@H](C(N)=O)NC(=O)[C@H](Cc2ccccc2)NC(=O)[C@H](Cc2ccc(F)cc2)NC1=O`, the outcome in series [2] was inactive. Besides, the IC50 in [3] turned out to be 0.55 nM; in series [6], 2.4 nM; in [7], 280 nM. In addition, the Ratio in [4] amounted to 0.79. Also, the results for the EC50 in [5] and in series [10] were 4.79 nM and 2.51 nM, respectively. The remaining at 1.5 h, 500 µM in series [8] is 96%.

With `Cc1cc(O)cc(C)c1C[C@H](N)C(=O)N[C@@H]1CCCCNC(=O)C[C@@H](C(N)=O)NC(=O)[C@H](Cc2ccccc2)NC(=O)[C@H](Cc2ccc(F)cc2F)NC1=O`, the IC50 in [3] worked out at 0.54 nM; in series [6], 0.6 nM; in series [7] it was 342 nM. The Ratio in series [4] was determined as 0.65. The EC50 in series [5] was 2.82 nM; in series [10] it was 5.13 nM. Further, the remaining at 1.5 h, 500 µM in series [8] worked out at 94%.

For `Cc1cc(O)cc(C)c1C[C@H](N)C(=O)N[C@@H]1CCCCNC(=O)C[C@@H](C(N)=O)NC(=O)[C@H](Cc2ccc(F)cc2)NC(=O)[C@H](Cc2ccccc2)NC1=O`, the results for the IC50 in series [3], in series [6] and in [7] were 0.61 nM, 0.55 nM and 168 nM, respectively. The inhibition entry in series [12] and in series [16] was “Active” throughout. In addition, in series [13], the inhibition result was “inactive”. For the same compound, the values for the Ratio in series [4] and in series [11] were 0.71 and 0.21, respectively. In addition, in [14], the inhibition result was “Dose-dependent effect”. In addition, the EC50 in series [5] was 2.24 nM; in [9], 33.9 nM; in series [10], 2.75 nM. Moreover, the remaining at 1.5 h, 500 µM in series [8] stood at 93%.
